Results published in patent US8759301B2, “Gene fusion targeted therapy” (The Regents of The University of Michigan, priority 2010, dated 2014).
Entries after “also recorded” stand apart in the source; their conditions may differ. Like-named read-outs stand apart in the source and are kept apart here.

Assays:
[1] = molecular target: AR (Homo sapiens, UniProt P10275, T878A); settings: for number of AR binding sites: LNCaP R1881-treated
[2] = system: AR protein; experiment: Immunoblot of AR protein in VCaP cells; format: cell-based
Description: VCaP cells grown in DMEMglutamax (Invitrogen, Carlsbad, Calif.) supplemented with 10% FBS to 80% confluence. Cells were harvested with or without formaldehyde crosslinking, and nuclei were isolated subsequently. After washing with TBS twice, nuclei were lysed and sonicated in RIPA buffer containing protease inhibitors (Roche applied science, Indianapolis, Ind.). […] Mouse monoclonal anti-AR antibody (AR441) from Labvision (Thermo scientific, Fremont, Calif.) was used for Western experiment.

[3] = system: AR mRNA; experiment: Quantitative PCR of AR transcript in VCaP cells; format: cell-based
Description: All PCR experiments were performed in triplicates.

[4] = molecular target: AR (Homo sapiens, UniProt P10275); settings: VCaP, R1881 treated (10 nM, 16 hr, hormone deprived)
AR (Homo sapiens, UniProt P10275), sequence (P10275 whole entry): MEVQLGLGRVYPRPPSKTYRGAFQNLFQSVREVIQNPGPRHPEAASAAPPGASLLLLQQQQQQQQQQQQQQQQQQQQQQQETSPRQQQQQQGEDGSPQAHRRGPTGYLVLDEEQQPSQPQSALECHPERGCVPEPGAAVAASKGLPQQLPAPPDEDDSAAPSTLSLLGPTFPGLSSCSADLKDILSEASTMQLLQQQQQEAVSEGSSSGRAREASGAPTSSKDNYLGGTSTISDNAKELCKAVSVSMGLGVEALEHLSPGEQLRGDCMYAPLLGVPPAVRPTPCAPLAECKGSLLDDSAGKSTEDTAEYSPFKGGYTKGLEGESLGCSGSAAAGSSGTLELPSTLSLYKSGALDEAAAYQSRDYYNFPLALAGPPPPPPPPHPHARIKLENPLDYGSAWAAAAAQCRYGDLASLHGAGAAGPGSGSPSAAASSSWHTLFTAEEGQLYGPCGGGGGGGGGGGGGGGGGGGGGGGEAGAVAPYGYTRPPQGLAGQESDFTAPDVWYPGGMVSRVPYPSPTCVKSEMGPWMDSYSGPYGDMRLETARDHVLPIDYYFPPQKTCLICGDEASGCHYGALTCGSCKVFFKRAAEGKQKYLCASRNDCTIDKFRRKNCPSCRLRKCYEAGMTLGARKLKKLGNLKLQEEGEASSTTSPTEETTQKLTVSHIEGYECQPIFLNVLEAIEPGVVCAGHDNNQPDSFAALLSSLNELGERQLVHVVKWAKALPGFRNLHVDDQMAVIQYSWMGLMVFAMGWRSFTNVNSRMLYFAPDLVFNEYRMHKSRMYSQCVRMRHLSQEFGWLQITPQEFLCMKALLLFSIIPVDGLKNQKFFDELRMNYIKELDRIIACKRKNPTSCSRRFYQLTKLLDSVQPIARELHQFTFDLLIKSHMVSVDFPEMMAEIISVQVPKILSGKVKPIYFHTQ
Description: For ERG ChIP, LNCaP, VCaP, RWPE+ERG, and RWPE+GUS cells grown in corresponding regular medium were used.
ChIP samples were prepared for sequencing using the Genomic DNA sample prep kit (Illumina) following manufacturers protocols. ChIP-Sequencing was performed using Illumina Genome Analyzer according to standard manufacturer's procedures. The raw sequencing image data were analyzed by the Illumina analysis pipeline, aligned to the unmasked human reference genome (NCBI v36, hg18) using the ELAND software (Illumina) to generate sequence reads of 25-32 bps.
It was first counted how many uniquely mapped reads are there in each sample and the ratio of the two counts was used as the normalizing factor to bring the total number of useable reads to the same level in both samples. Next each uniquely mapped read was extended directionally to form a 200 bp hypothetical DNA fragment (HDF) in each sample. 200 is assumed to be the average length of size-selected DNA pieces during sample preparation (175-225 bp).
Under the null hypothesis of no enrichment in the stimulated sample versus unstimulated samples, reads from both samples are assumed to land on the genome following the same Poisson distribution (after corrected for the read counts in the unstimulated sample). […] The probability of observing the read difference between two samples in each coverage region was calculated numerically. […]

AR (Homo sapiens, UniProt P10275, T878A), sequence (P10275 whole entry T878A): as the sequence (P10275 whole entry) above, with T878A counted along it

C[C@]1(O)CC[C@H]2[C@@H]3CCC4=CC(=O)CCC4=C3C=C[C@@]21C [R1881, methyltrienolone]
number of AR binding sites ([1]; distance to TSS 7 kb): 145
number of AR binding sites ([1]; distance to TSS 8 kb): 148
number of AR binding sites ([1]; distance to TSS 9 kb): 139
number of AR binding sites ([1]; distance to TSS 10 kb): 117
number of AR binding sites ([1]; distance to TSS 11 kb): 120
number of AR binding sites ([1]; distance to TSS 12 kb): 123
number of AR binding sites ([1]; distance to TSS 13 kb): 134
number of AR binding sites ([1]; distance to TSS 14 kb): 126
number of AR binding sites ([1]; distance to TSS 15 kb): 137
number of AR binding sites ([1]; distance to TSS 16 kb): 114
number of AR binding sites ([1]; distance to TSS 17 kb): 109
number of AR binding sites ([1]; distance to TSS 18 kb): 107
number of AR binding sites ([1]; distance to TSS 19 kb): 109
number of AR binding sites ([1]; distance to TSS 20 kb): 97
number of AR binding sites ([1]; distance to TSS 21 kb): 97
number of AR binding sites ([1]; distance to TSS 22 kb): 98
number of AR binding sites ([1]; distance to TSS 23 kb): 100
number of AR binding sites ([1]; distance to TSS 24 kb): 99
number of AR binding sites ([1]; distance to TSS 25 kb): 105
number of AR binding sites ([1]; distance to TSS 26 kb): 105
number of AR binding sites ([1]; distance to TSS 27 kb): 86
number of AR binding sites ([1]; distance to TSS 28 kb): 90
number of AR binding sites ([1]; distance to TSS 29 kb): 76
number of AR binding sites ([1]; distance to TSS 30 kb): 78
number of AR binding sites ([1]; distance to TSS 31 kb): 101
number of AR binding sites ([1]; distance to TSS 32 kb): 86
number of AR binding sites ([1]; distance to TSS 33 kb): 94
number of AR binding sites ([1]; distance to TSS 34 kb): 79
number of AR binding sites ([1]; distance to TSS 35 kb): 68
number of AR binding sites ([1]; distance to TSS 36 kb): 79
number of AR binding sites ([1]; distance to TSS 37 kb): 88
number of AR binding sites ([1]; distance to TSS 38 kb): 72
number of AR binding sites ([1]; distance to TSS 39 kb): 57
number of AR binding sites ([1]; distance to TSS 40 kb): 65
number of AR binding sites ([1]; distance to TSS 41 kb): 76
number of AR binding sites ([1]; distance to TSS 42 kb): 65
number of AR binding sites ([1]; distance to TSS 43 kb): 73
number of AR binding sites ([1]; distance to TSS 44 kb): 58
number of AR binding sites ([1]; distance to TSS 45 kb): 69
number of AR binding sites ([1]; distance to TSS 46 kb): 56
number of AR binding sites ([1]; distance to TSS 47 kb): 53
number of AR binding sites ([1]; distance to TSS 48 kb): 55
number of AR binding sites ([1]; distance to TSS 49 kb): 61
number of AR binding sites ([1]; distance to TSS 50 kb): 77
number of AR binding sites ([1]; distance to TSS 51 kb): 50
number of AR binding sites ([1]; distance to TSS 52 kb): 54
number of AR binding sites ([1]; distance to TSS 53 kb): 61
number of AR binding sites ([1]; distance to TSS 54 kb): 56
number of AR binding sites ([1]; distance to TSS 55 kb): 41
number of AR binding sites ([1]; distance to TSS 56 kb): 55
number of AR binding sites ([1]; distance to TSS 57 kb): 59
number of AR binding sites ([1]; distance to TSS 58 kb): 60
number of AR binding sites ([1]; distance to TSS 59 kb): 58
number of AR binding sites ([1]; distance to TSS 60 kb): 43
number of AR binding sites ([1]; distance to TSS 61 kb): 36
number of AR binding sites ([1]; distance to TSS 62 kb): 49
number of AR binding sites ([1]; distance to TSS 63 kb): 40
number of AR binding sites ([1]; distance to TSS 64 kb): 52
number of AR binding sites ([1]; distance to TSS 65 kb): 50
number of AR binding sites ([1]; distance to TSS 66 kb): 39
number of AR binding sites ([1]; distance to TSS 67 kb): 37
number of AR binding sites ([1]; distance to TSS 68 kb): 47
number of AR binding sites ([1]; distance to TSS 69 kb): 47
number of AR binding sites ([1]; distance to TSS 70 kb): 45
number of AR binding sites ([1]; distance to TSS 71 kb): 43
number of AR binding sites ([1]; distance to TSS 72 kb): 43
number of AR binding sites ([1]; distance to TSS 73 kb): 57
number of AR binding sites ([1]; distance to TSS 74 kb): 37
number of AR binding sites ([1]; distance to TSS 75 kb): 34
number of AR binding sites ([1]; distance to TSS 76 kb): 39
number of AR binding sites ([1]; distance to TSS 77 kb): 48
number of AR binding sites ([1]; distance to TSS 78 kb): 31
number of AR binding sites ([1]; distance to TSS 79 kb): 37
number of AR binding sites ([1]; distance to TSS 80 kb): 36
number of AR binding sites ([1]; distance to TSS 81 kb): 35
number of AR binding sites ([1]; distance to TSS 82 kb): 49
number of AR binding sites ([1]; distance to TSS 83 kb): 39
number of AR binding sites ([1]; distance to TSS 84 kb): 32
number of AR binding sites ([1]; distance to TSS 85 kb): 39
number of AR binding sites ([1]; distance to TSS 86 kb): 40
number of AR binding sites ([1]; distance to TSS 87 kb): 31
number of AR binding sites ([1]; distance to TSS 88 kb): 34
number of AR binding sites ([1]; distance to TSS 89 kb): 33
number of AR binding sites ([1]; distance to TSS 90 kb): 33
number of AR binding sites ([1]; distance to TSS 91 kb): 41
number of AR binding sites ([1]; distance to TSS 92 kb): 28
number of AR binding sites ([1]; distance to TSS 93 kb): 36
number of AR binding sites ([1]; distance to TSS 94 kb): 27
number of AR binding sites ([1]; distance to TSS 95 kb): 28
number of AR binding sites ([1]; distance to TSS 96 kb): 35
number of AR binding sites ([1]; distance to TSS 97 kb): 27
number of AR binding sites ([1]; distance to TSS 98 kb): 27
number of AR binding sites ([1]; distance to TSS 99 kb): 34
number of AR binding sites ([1]; distance to TSS 100 kb): 19
number of AR binding sites ([1]; distance to TSS 101 kb): 24
number of AR binding sites ([1]; distance to TSS 102 kb): 23
number of AR binding sites ([1]; distance to TSS 103 kb): 28
number of AR binding sites ([1]; distance to TSS 104 kb): 30
number of AR binding sites ([1]; distance to TSS 105 kb): 20
number of AR binding sites ([1]; distance to TSS 106 kb): 31
Enriched Peaks, AR ChIP-Seq ([1]; LNCaP, R1881 treated (10 nM, 16 hr, hormone deprived)): 44536
AR protein expression [2]: inhibits
AR mRNA expression ([3]; VCaP cells): inhibits; also recorded: repression
repression of AR transcript ([3]; hormone-deprived VCaP, 24 h after treatment, versus vehicle): over 10 folds
Enriched Peaks, AR ChIP-Seq [4]: 21376
